≈ marks a conversion by molar mass, not a printed value.
What was measured:
[1] = biological target: T1, human cytochrome P450 (CYP) 1A2 (Homo sapiens, UniProt P05177); assay: Cytochrome P450 Inhibition Assay 1A2; format: in vitro ADME; settings: test compound final concentrations 0.1-10 μM; substrate CEC
T1 construct: made in house; host or cells: yeast cell lines (microsomal fractions)
T1 sequence (P05177 1-516): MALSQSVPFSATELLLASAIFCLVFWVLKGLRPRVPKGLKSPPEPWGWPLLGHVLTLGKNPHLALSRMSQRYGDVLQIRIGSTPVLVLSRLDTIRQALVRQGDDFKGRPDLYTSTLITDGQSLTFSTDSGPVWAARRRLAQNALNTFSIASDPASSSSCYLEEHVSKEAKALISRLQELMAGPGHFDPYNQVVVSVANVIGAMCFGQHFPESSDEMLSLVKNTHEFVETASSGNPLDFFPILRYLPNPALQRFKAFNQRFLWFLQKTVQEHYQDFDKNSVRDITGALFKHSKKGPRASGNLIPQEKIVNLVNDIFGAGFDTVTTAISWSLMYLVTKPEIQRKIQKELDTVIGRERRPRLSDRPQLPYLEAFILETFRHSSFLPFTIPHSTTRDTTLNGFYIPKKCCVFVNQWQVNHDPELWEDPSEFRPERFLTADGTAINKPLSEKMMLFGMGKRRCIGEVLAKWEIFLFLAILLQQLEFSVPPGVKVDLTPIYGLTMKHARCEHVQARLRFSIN
Procedure: The inhibitory potential (IC50) of test compounds against 5 human cytochrome P450 (CYP) isoforms (1A2, 2C9, 2C19, 3A4 and 2D6) was assessed using an automated fluorescent end point in vitro assay modified from Crespi (Crespi and Stresser, 2000). Microsomal subcellular fractions prepared from Yeast cell lines expressing each human CYP isoform were used as an enzyme source in this assay. The activity of the 5 major human CYPs was determined from the biotransformation of a number of coumarin substrates to fluorescent metabolites, in the presence of NADPH. […] Comparison of the fluorescence observed in the presence of varying concentrations of test compound with that seen in its absence allowed an IC50 value to be calculated. Stock solutions of each CYP, with its respective substrate, were prepared in phosphate buffer pH7.4 (see Table 1) and 178 μl was added to the well of a black solid, flat bottom, 300 μl 96 well is microtitre plate (Corning Costar). […] The appropriate solvent controls and substrate blanks were included in each experiment to assess control activity and identify any inherent fluorescence due to the test compounds. […] The plates were read on a fluorimeter (Spectrafluor Plus) at the appropriate excitation and emission wavelengths (listed in Table 2) and the percent activity, corrected for control, was plotted against the test compound concentration.

[2] = Solubility in 0.1 M phosphate buffer pH 7.4; format: physicochemical; settings: pH 7.4, 24 h
Procedure: Solubility values are determined by agitation of compounds in 0.1 M phosphate buffer at pH 7.4 for 24 h at 25° C. The supernatant is separated from undissolved material by double centrifugation and subsequently analyzed and quantified against a standard of known concentration in DMSO using generic HPLC-UV methodology coupled with mass spectral peak identification (J. Med. Chem., 2006, 49(23), 6672-6682).

[3] = LogD (shake flask method); format: physicochemical
From the text: LogD can be measured using the generic shake flask method as described in Lars-Goran Danielsson, Yu Hui Zhang, Trends in Analytical Chemistry, 1996, 15(4), 188-196, and also by the method described in B. Law and D. Temesi, J. Chromatogr. B 748 (2000), 21-30.

Row | SMILES | IC50 [1] | solubility at 24 h ([2]; phosphate buffer, 25 °C, pH 7.4, aqueous buffer, thermodynamic from solid) | logD [3] | solubility at 24 h ([2]; 25° C.)
1 | CCc1cc(Nc2cc(OC)nc(N3CCC[C@H]3c3cc(-c4ncccn4)no3)n2)n[nH]1 [Comparative Example A, (S)-6-Methoxy-2-{2-[3-(pyrimid-2-yl)isoxazol-5-yl]pyrrolidin-1-yl}-4-(5-ethyl-1H-pyrazol-3-ylamino)pyrimidine] | 1.87 µM | 9.24 µM (≈ 4.01 µg/mL) | 3.43 | –
2 | COc1cc(Nc2cc(C)n[nH]2)nc(N2CCC[C@H]2c2cc(-c3ncccn3)no2)n1 [Example 1, (S)-6-Methoxy-2-{2-[3-(pyrimid-2-yl)isoxazol-5-yl]pyrrolidin-1-yl}-4-(5-methyl-1H-pyrazol-3-ylamino)pyrimidine] | > 10 µM | – | 3.12 | 160 µM (≈ 67.1 µg/mL)

Source: patent US20080269266A1, “NOVEL COMPOUNDS 747” (ASTRAZENECA AB, priority 2007, published 2008)
